# Assay results as given in patent publication US12162890B2 (Novartis AG, priority 2015, dated 2024).
# Molecular target: HEK293 cells with stable expression of the GRIN1 gene and tetracycline-inducible expression of the GRIN2B gene (NMDA receptor, NR2B) (Homo sapiens, UniProt Q13224)
# Experiment: Fluo-8 Ca2+ flux assay: reversal of Ro 25-6981-mediated suppression of the Ca2+ response to co-agonist (glutamate/glycine); further: test concentration or dose not given here
# Type: cell-based
# Conditions: reversal of the Ro 25-6981 suppression of the Ca2+ response to co-agonist (glutamate/glycine)
# Sequence of HEK293 cells with stable expression of the GRIN1 gene and tetracycline-inducible expression of the GRIN2B gene (NMDA receptor, NR2B) (Q13224 27-1484, other chains not shown): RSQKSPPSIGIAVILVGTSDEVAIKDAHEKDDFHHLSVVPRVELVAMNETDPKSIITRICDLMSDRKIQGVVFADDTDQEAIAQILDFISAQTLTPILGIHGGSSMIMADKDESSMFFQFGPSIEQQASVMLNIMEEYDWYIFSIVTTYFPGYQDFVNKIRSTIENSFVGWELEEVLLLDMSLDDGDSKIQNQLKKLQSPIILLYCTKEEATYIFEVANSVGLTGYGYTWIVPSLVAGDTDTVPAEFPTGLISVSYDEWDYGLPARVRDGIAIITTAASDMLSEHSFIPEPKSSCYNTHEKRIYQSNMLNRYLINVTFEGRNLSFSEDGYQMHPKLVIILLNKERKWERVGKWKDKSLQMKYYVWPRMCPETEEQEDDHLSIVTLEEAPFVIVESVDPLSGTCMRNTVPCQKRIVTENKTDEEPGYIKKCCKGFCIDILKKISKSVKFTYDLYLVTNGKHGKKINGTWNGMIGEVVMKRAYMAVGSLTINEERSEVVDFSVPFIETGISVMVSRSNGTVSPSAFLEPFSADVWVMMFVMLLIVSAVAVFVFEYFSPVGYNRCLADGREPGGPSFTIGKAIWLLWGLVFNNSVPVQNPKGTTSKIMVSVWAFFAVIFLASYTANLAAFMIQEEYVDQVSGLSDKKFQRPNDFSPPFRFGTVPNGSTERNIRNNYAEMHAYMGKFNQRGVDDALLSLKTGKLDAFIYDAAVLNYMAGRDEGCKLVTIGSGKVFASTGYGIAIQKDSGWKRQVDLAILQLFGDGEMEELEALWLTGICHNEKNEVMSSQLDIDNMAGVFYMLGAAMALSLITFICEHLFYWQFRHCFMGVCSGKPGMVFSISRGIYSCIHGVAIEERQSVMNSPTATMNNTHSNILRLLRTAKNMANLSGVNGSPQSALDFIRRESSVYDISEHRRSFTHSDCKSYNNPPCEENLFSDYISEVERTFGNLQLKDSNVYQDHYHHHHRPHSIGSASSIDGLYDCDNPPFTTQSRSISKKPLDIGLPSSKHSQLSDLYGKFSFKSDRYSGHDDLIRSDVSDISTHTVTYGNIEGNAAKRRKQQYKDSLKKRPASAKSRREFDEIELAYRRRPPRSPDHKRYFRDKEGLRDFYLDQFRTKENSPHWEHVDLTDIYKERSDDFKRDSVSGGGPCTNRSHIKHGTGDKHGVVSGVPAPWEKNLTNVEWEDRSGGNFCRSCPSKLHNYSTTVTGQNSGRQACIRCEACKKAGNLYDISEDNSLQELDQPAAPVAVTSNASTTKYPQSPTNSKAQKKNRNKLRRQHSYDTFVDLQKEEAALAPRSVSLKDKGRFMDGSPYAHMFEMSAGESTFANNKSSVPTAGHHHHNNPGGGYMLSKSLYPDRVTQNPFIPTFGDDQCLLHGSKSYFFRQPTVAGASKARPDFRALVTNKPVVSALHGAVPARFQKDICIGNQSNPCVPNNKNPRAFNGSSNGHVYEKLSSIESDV
row,Response Recovered (%),SMILES
1,−3.8,"O=C(Cn1ccc2scc(-c3cncc(Cl)n3)c2c1=O)N1CC(F)(CF)C1 [Example 146, 3-(6-chloropyrazin-2-yl)-5-(2-(3-fluoro-3-(fluoromethyl)azetidin-1-yl)-2-oxoethyl)thieno[3,2-c]pyridin-4(5H)-one]"
2,77,"O=C(Cn1ccn2ccc(-c3ccc(F)c(C(F)(F)F)c3)c2c1=O)N1CCCC1 [Example 391, 8-(4-fluoro-3-(trifluoromethyl)phenyl)-2-(2-oxo-2-(pyrrolidin-1-yl)ethyl)pyrrolo[1,2-a]pyrazin-1(2H)-one]"
3,3,"O=C(CCn1ccc2scc(-c3ccc(Cl)c(C(F)(F)F)c3)c2c1=O)N1CCC(F)C1 (centres unmarked) [Example 24, 3-(4-chloro-3-(trifluoromethyl)phenyl)-5-(3-(3-fluoropyrrolidin-1-yl)-3-oxopropyl)thieno[3,2-c]pyridin-4(5H)-one]"
4,60,"O=C(Cn1ccc2scc(-c3ccc(F)c(Cl)c3)c2c1=O)N1CCCC1 [Example 3, 3-(3-chloro-4-fluorophenyl)-5-(2-oxo-2-(pyrrolidin-1-yl)ethyl)thieno[3,2-c]pyridin-4(5H)-one]"
5,46,"O=C(Cn1ccc2scc(-c3ccc(F)c(Cl)c3)c2c1=O)N1CC[C@H](F)C1 [Example 40, (S)-3-(3-chloro-4-fluorophenyl)-5-(2-(3-fluoropyrrolidin-1-yl)-2-oxoethyl)thieno[3,2-c]pyridin-4(5H)-one]"
6,40,"Cn1cc(-c2ccc(F)c(Cl)c2)c2c(=O)n(CC(=O)N3CC(F)(F)C3)cnc21 [Example 162, 5-(3-chloro-4-fluorophenyl)-3-(2-(3,3-difluoroazetidin-1-yl)-2-oxoethyl)-7-methyl-3H-pyrrolo[2,3-d]pyrimidin-4(7H)-one]"
7,21,"O=C(Cn1cnc2c(c(-c3ccc(F)c(Cl)c3)cn2CCO)c1=O)N1CCCC1 [Example 195, 5-(3-chloro-4-fluorophenyl)-7-(2-hydroxyethyl)-3-(2-oxo-2-(pyrrolidin-1-yl)ethyl)-3H-pyrrolo[2,3-d]pyrimidin-4(7H)-one]"
8,35,"O=C(Cn1cnc2csc(-c3ccc(Cl)c(F)c3)c2c1=O)N1CCC(F)C1 (centres unmarked) [Example 364, 5-(4-chloro-3-fluorophenyl)-3-(2-(3-fluoropyrrolidin-1-yl)-2-oxoethyl)thieno[3,4-d]pyrimidin-4(3H)-one]"
9,30,"CCN(CC)Cc1cn(CC(=O)N2CCC(F)C2)c(=O)c2c(-c3ccc(F)c(C(F)(F)F)c3)csc12 (centres unmarked) [Example 117, 7-((diethylamino)methyl)-3-(4-fluoro-3-(trifluoromethyl)phenyl)-5-(2-(3-fluoropyrrolidin-1-yl)-2-oxoethyl)thieno[3,2-c]pyridin-4(5H)-one 2,2,2-trifluoroacetate]"
10,54,"O=C(Cn1ccc2scc(-c3cnc(Cl)c(C(F)(F)F)c3)c2c1=O)N1CC(F)C(F)C1 (centres unmarked) [Example 36, 3-(6-chloro-5-(trifluoromethyl)pyri-din-3-yl)-5-(2-(3,4-difluoropyrrolidin-1-yl)-2-oxoethyl)thieno[3,2-c]pyridin-4(5H)-one]"
11,12,"O=C(Cn1ccc2scc(-c3ccc(F)c(C(F)(F)F)c3)c2c1=O)N1CC(F)(C2CC2)C1 [Example 45, 5-(2-(3-cyclopropyl-3-fluoroazetidin-1-yl)-2-oxoethyl)-3-(4-fluoro-3-(trifluoromethyl)phen-yl)thieno[3,2-c]pyridin-4(5H)-one]"
12,99,"O=C(Cn1ccc2scc(-c3ccc(Cl)c(C(F)(F)F)c3)c2c1=O)N1CC[C@@H](F)C1 [Example 17, (R)-3-(4-chloro-3-(trifluoromethyl)phenyl)-5-(2-(3-fluoropyrrolidin-1-yl)-2-oxoethyl)thieno[3,2-c]pyridin-4(5H)-one]"
13,54,"O=C(Cn1cnc2[nH]cc(-c3ccc(F)c(Cl)c3)c2c1=O)N1CCC(F)C1 (centres unmarked) [Example 178, 5-(3-chloro-4-fluorophenyl)-3-(2-(3-fluoropyrrolidin-1-yl)-2-oxoethyl)-3H-pyrrolo[2,3-d]pyrimidin-4(7H)-one]"
14,2,"O=C(Cn1ccc2ccc(-c3ccc(Cl)c(Cl)c3)cc2c1=O)N1CCCC1 [Example 316, 7-(3,4-dichlorophenyl)-2-(2-oxo-2-(pyrrolidin-1-yl)ethyl)isoquinolin-1(2H)-one]"
15,15,"CCC1(F)CN(C(=O)Cn2ccc3scc(-c4cnc(F)c(F)c4)c3c2=O)C1 [Example 143, 3-(5,6-difluoropyridin-3-yl)-5-(2-(3-ethyl-3-fluoroazetidin-1-yl)-2-oxoethyl)thieno[3,2-c]pyridin-4(5H)-one]"
16,10,"O=C(Cn1cnc2csc(-c3ccc(Cl)cc3)c2c1=O)N1CCCC1C(F)(F)F (centres unmarked) [Example 355, 5-(4-chlorophenyl)-3-(2-oxo-2-(2-(trifluoromethyl)pyrrolidin-1-yl)ethyl)thieno[3,4-d]pyrimidin-4(3H)-one]"
17,23,"O=C(Cn1ccc2ncc(-c3ccc(F)c(Cl)c3)n2c1=O)N1CCC(F)C1 (centres unmarked) [Example 451, 3-(3-chloro-4-fluorophenyl)-6-(2-(3-fluoropyrrolidin-1-yl)-2-oxoethyl)imidazo[1,2-c]pyrimidin-5(6H)-one]"
18,70,"Cc1ncc(-c2csc3ccn(CC(=O)N4CC(F)(CF)C4)c(=O)c23)cc1Cl [Example 92, 3-(5-chloro-6-methylpyridin-3-yl)-5-(2-(3-fluoro-3-(fluoromethyl)azetidin-1-yl)-2-oxoethyl)thieno[3,2-c]pyridin-4(5H)-one]"
19,42,"O=C(Cn1ccc2[nH]cc(-c3ccc(Cl)c(C(F)(F)F)c3)c2c1=O)N1CCC(F)C1 (centres unmarked) [Example 203, 3-(4-chloro-3-(trifluoromethyl)phenyl)-5-(2-(3-fluoropyrrolidin-1-yl)-2-oxoethyl)-1H-pyrrolo[3,2-c]pyridin-4(5H)-one]"
20,130,"O=C(Cn1ccn2ccc(-c3ccc(Cl)c(Cl)c3)c2c1=O)N1CC(F)(CF)C1 [Example 403, 8-(3,4-dichlorophenyl)-2-(2-(3-fluoro-3-(fluoromethyl)azetidin-1-yl)-2-oxoethyl)pyrrolo[1,2-a]pyrazin-1(2H)-one]"
21,10,"CC1(O)CN(C(=O)Cn2ccc3scc(-c4ccc(F)c(Cl)c4)c3c2=O)C1 [Example 58, 3-(3-chloro-4-fluorophenyl)-5-(2-(3-hydroxy-3-methylazetidin-1-yl)-2-oxoethyl)thieno[3,2-c]pyridin-4(5H)-one]"
22,70,"CN(C)Cc1cn(CC(=O)N2CCC(F)C2)c(=O)c2c(-c3ccc(Cl)c(Cl)c3)csc12 (centres unmarked) [Example 123, 3-(3,4-dichlorophenyl)-7-((dimethylamino)methyl)-5-(2-(3-fluoropyrrolidin-1-yl)-2-oxoethyl)thieno[3,2-c]pyridin-4(5H)-one]"
23,71,"O=C(Cn1ccc2c(c(-c3ccc(F)c(C(F)(F)F)c3)cn2CC(F)F)c1=O)N1CCC(F)C1 (centres unmarked) [Example 279, 1-(2,2-difluoroethyl)-3-(4-fluoro-3-(trifluoromethyl)phenyl)-5-(2-(3-fluoropyrrolidin-1-yl)-2-oxoethyl)-1H-pyrrolo[3,2-c]pyridin-4(5H)-one]"
24,22,"O=C(Cn1cc(-c2ccncc2)c2scc(-c3ccc(F)c(C(F)(F)F)c3)c2c1=O)N1CCCC1 [Example 105, 3-(4-fluoro-3-(trifluoromethyl)phenyl)-5-(2-oxo-2-(pyrrolidin-1-yl)ethyl)-7-(pyridin-4-yl)thieno[3,2-c]pyridin-4(5H)-one]"
25,120,"CC1(F)CN(C(=O)Cn2ccc3scc(-c4ccc(Cl)c(C(F)(F)F)c4)c3c2=O)C1 [Example 21, 3-(4-chloro-3-(trifluoromethyl)phenyl)-5-(2-(3-fluoro-3-methylazetidin-1-yl)-2-oxoethyl)thieno[3,2-c]pyridin-4(5H)-one]"
26,46,"COCc1cn(CC(=O)N2CCC(F)C2)c(=O)c2c(-c3ccc(F)c(C(F)(F)F)c3)csc12 (centres unmarked) [Example 126, 3-(4-fluoro-3-(trifluoromethyl)phenyl)-5-(2-(3-fluoropyrrolidin-1-yl)-2-oxoethyl)-7-(methoxymethyl)thieno[3,2-c]pyridin-4(5H)-one]"
27,160,"CC1(F)CN(C(=O)Cn2ccc3scc(-c4ccc(F)c(C(F)(F)F)c4)c3c2=O)C1 [Example 43, 3-(4-fluoro-3-(trifluoromethyl)phen-yl)-5-(2-(3-fluoro-3-methylazetidin-1-yl)-2-oxoethyl)thieno[3,2-c]pyridin-4(5H)-one]"
28,11,"CC1(F)CN(C(=O)Cn2ccc3scc(-c4cnc(F)c(F)c4)c3c2=O)C1 [Example 139, 3-(5,6-difluoropyridin-3-yl)-5-(2-(3-fluoro-3-methylazetidin-1-yl)-2-oxoethyl)thieno[3,2-c]pyridin-4(5H)-one]"
29,2.8,"O=C(Cn1ccc2scc(-c3ccc(F)c(Cl)c3)c2c1=O)N1CC2(CCN2)C1 [Example 97, 3-(3-chloro-4-fluorophenyl)-5-(2-oxo-2-(1,6-diazaspiro[3.3]heptan-6-yl)ethyl)thieno[3,2-c]pyridin-4(5H)-one 2,2,2-trifluoroacetate]"

row,SMILES,Response Recovered (%)
1,"CCn1cc(-c2ccc(Cl)c(Cl)c2)c2c(=O)n(CC(=O)N3CCC(F)C3)ccc21 (centres unmarked) [Example 272, 3-(3,4-dichlorophenyl)-1-ethyl-5-(2-(3-fluoropyrrolidin-1-yl)-2-oxoethyl)-1H-pyrrolo[3,2-c]pyridin-4(5H)-one]",33
2,"C[Si](C)(C)CCOCn1cc(-c2ccc(Cl)c(F)c2)c2c(=O)n(CC(=O)N3CCCC3)ccc21 [Example 201, 3-(4-chloro-3-fluorophenyl)-5-(2-oxo-2-(pyrrolidin-1-yl)ethyl)-1-((2-(trimethylsilyl)ethoxy)methyl)-1H-pyrrolo[3,2-c]pyridin-4(5H)-one]",62
3,"C[Si](C)(C)CCOCn1cc(-c2ccc(Cl)c(C(F)(F)F)c2)c2c(=O)n(CC(=O)N3CCC(F)C3)ccc21 (centres unmarked) [Example 199, 3-(4-chloro-3-(trifluoromethyl)phenyl)-5-(2-(3-fluoropyrrolidin-1-yl)-2-oxoethyl)-1-((2-(trimethylsilyl)ethoxy)methyl)-1H-pyrrolo[3,2-c]pyridin-4(5H)-one]",47
